Reference: PubChem BioAssay AID190 (DTP/NCI, 2004)
Where “and” joins values, the source holds several entries; their conditions need not be identical. Equal values may be shown once. Toxic doses and inconclusive results are not listed.

Tested on: AKR/Lw mice, AKR lymphoma ip, median survival T/C
Assay: NCI In Vivo Anticancer Drug Screen. Data for tumor model Lymphoma AKR (Transplanted) (intraperitoneal) in AKR/Lw mice
Details: endpoint: median survival time, higher = longer survival
Protocol: The antitumor activity of compounds was measured in mice bearing transplantable tumors. Survival or tumor size were measured and the results are expressed as the measurement made in the treated group (T) divided by the measurement made in the vehicle treated control group (C). The tumor model used in this assay is Lymphoma AKR (Transplanted) (intraperitoneal) in AKR/Lw mice

[1] = dose: 100.0 mg/kg/injection, schedule: Q01DX001 (ip), vehicle: saline
[2] = dose: 200.0 mg/kg/injection, schedule: Q01DX001 (ip), vehicle: saline
[3] = dose: 100.0 mg/kg/injection, schedule: Q04DX003 (ip), vehicle: Klucel (hydroxypropylcellulose) (HPC)
[4] = dose: 200.0 mg/kg/injection, schedule: Q01DX001 (ip), vehicle: Klucel (hydroxypropylcellulose) (HPC)
[5] = dose: 400.0 mg/kg/injection, schedule: Q01DX001 (ip), vehicle: Klucel (hydroxypropylcellulose) (HPC)
[6] = dose: 100.0 mg/kg/injection, schedule: Q01DX001 (ip), vehicle: Klucel (hydroxypropylcellulose) (HPC)
[7] = dose: 400.0 mg/kg/injection, schedule: Q01DX001 (ip), vehicle: saline

For `NC(Cc1ccc([N+](=O)[O-])cc1)C(=O)O` (configuration not stated), the T/C [1] was 94 % of control and the T/C [2] was 96 % of control.

In the case of `CC(C)c1c[nH]c(=O)[nH]c1=O`, the T/C (dose: 25.0 mg/kg/injection, schedule: Q04DX003 (ip), vehicle: Klucel (hydroxypropylcellulose) (HPC)) is reported as 97 % of control, the T/C (dose: 50.0 mg/kg/injection, schedule: Q04DX003 (ip), vehicle: Klucel (hydroxypropylcellulose) (HPC)) is reported as 94 % of control and the T/C [3] is reported as 94 % of control. For the same compound, the T/C [4] was 86 % of control and the T/C [5] was 92 % of control.

For `O=CN(c1ccccc1)c1ccccc1`, the T/C (dose: 25.0 mg/kg/injection, schedule: Q01DX001 (ip), vehicle: Klucel (hydroxypropylcellulose) (HPC)) was 111 % of control, the T/C (dose: 50.0 mg/kg/injection, schedule: Q01DX001 (ip), vehicle: Klucel (hydroxypropylcellulose) (HPC)) was 105 % of control and the T/C [6] was 97 % of control. The T/C (dose: 100.0 mg/kg/injection, schedule: Q01DX001 (ip), vehicle: other) was 120 % of control, the T/C (dose: 200.0 mg/kg/injection, schedule: Q01DX001 (ip), vehicle: other) was 118 % of control and the T/C (dose: 400.0 mg/kg/injection, schedule: Q01DX001 (ip), vehicle: other) was 100 % of control.

`CN(C)S(=O)(=O)Nc1cc(Cl)c(NS(=O)(=O)N(C)C)cc1Cl` was tested, and the T/C [6] was 93 % of control, the T/C [4] was 106 % of control and the T/C [5] was 100 % of control.

`O=C(O)CCCc1ccc(N(CCCl)CCCl)cc1` was tested, and the T/C (dose: 0.12 mg/kg/injection, schedule: Q01DX009 (ip), vehicle: Klucel (hydroxypropylcellulose) (HPC)) was 97 % of control, the T/C (dose: 0.25 mg/kg/injection, schedule: Q01DX009 (ip), vehicle: Klucel (hydroxypropylcellulose) (HPC)) was 94 % of control and 96 % of control and the T/C (dose: 0.5 mg/kg/injection, schedule: Q01DX009 (ip), vehicle: Klucel (hydroxypropylcellulose) (HPC)) was 100 % of control. For the same compound, the T/C (dose: 1.0 mg/kg/injection, schedule: Q01DX009 (ip), vehicle: Klucel (hydroxypropylcellulose) (HPC)) was 96 % of control and 102 % of control, the T/C (dose: 1.2 mg/kg/injection, schedule: Q01DX009 (ip), vehicle: Klucel (hydroxypropylcellulose) (HPC)) was 100 % of control and the T/C (dose: 1.2 mg/kg/injection, schedule: Q04DX003 (ip), vehicle: Klucel (hydroxypropylcellulose) (HPC)) was 94 % of control. The T/C (dose: 1.25 mg/kg/injection, schedule: Q04DX003 (ip), vehicle: saline) was 103 % of control, the T/C (dose: 2.0 mg/kg/injection, schedule: Q01DX009 (ip), vehicle: Klucel (hydroxypropylcellulose) (HPC)) was 100 % of control and the T/C (dose: 2.5 mg/kg/injection, schedule: Q01DX009 (ip), vehicle: Klucel (hydroxypropylcellulose) (HPC)) was 93 % of control and 107 % of control. The T/C (dose: 2.5 mg/kg/injection, schedule: Q04DX003 (ip), vehicle: Klucel (hydroxypropylcellulose) (HPC)) was 100 % of control, the T/C (dose: 2.5 mg/kg/injection, schedule: Q04DX003 (ip), vehicle: saline) was 86 % of control and 118 % of control and the T/C (dose: 3.75 mg/kg/injection, schedule: Q01DX009 (ip), vehicle: saline) was 119 % of control. The T/C (dose: 4.0 mg/kg/injection, schedule: Q01DX009 (ip), vehicle: Klucel (hydroxypropylcellulose) (HPC)) was 118 % of control, the T/C (dose: 5.0 mg/kg/injection, schedule: Q01DX009 (ip), vehicle: Klucel (hydroxypropylcellulose) (HPC)) was 86 % of control and 110 % of control and the T/C (dose: 5.0 mg/kg/injection, schedule: Q04DX003 (ip), vehicle: Klucel (hydroxypropylcellulose) (HPC)) was 100 % of control and 105 % of control and 117 % of control. The T/C (dose: 5.0 mg/kg/injection, schedule: Q04DX003 (ip), vehicle: saline) was 93 % of control and 97 % of control, the T/C (dose: 6.2 mg/kg/injection, schedule: Q01DX001 (ip), vehicle: Klucel (hydroxypropylcellulose) (HPC)) was 95 % of control and 120 % of control and the T/C (dose: 6.25 mg/kg/injection, schedule: Q01DX009 (ip), vehicle: saline) was 97 % of control. For the same compound, the T/C (dose: 7.5 mg/kg/injection, schedule: Q01DX009 (ip), vehicle: Klucel (hydroxypropylcellulose) (HPC)) was 106 % of control, the T/C (dose: 7.5 mg/kg/injection, schedule: Q01DX009 (ip), vehicle: saline) was 122 % of control and the T/C (dose: 12.5 mg/kg/injection, schedule: Q01DX001 (ip), vehicle: Klucel (hydroxypropylcellulose) (HPC)) was 109 % of control and 118 % of control. The T/C (dose: 12.5 mg/kg/injection, schedule: Q01DX001 (ip), vehicle: saline) was 109 % of control and 111 % of control, the T/C (dose: 15.0 mg/kg/injection, schedule: Q01DX009 (ip), vehicle: saline) was 122 % of control and the T/C (dose: 20.0 mg/kg/injection, schedule: Q04DX003 (ip), vehicle: saline) was 94 % of control. For the same compound, the T/C (dose: 40.0 mg/kg/injection, schedule: Q04DX003 (ip), vehicle: Klucel (hydroxypropylcellulose) (HPC)) was 100 % of control and the T/C [6] was 104 % of control.

With `O=C(O)c1ccc(SSc2ccc(C(=O)O)cn2)nc1` the T/C (dose: 12.5 mg/kg/injection, schedule: Q01DX009 (ip), vehicle: Klucel (hydroxypropylcellulose) (HPC)) was 100 % of control, the T/C (dose: 25.0 mg/kg/injection, schedule: Q01DX009 (ip), vehicle: Klucel (hydroxypropylcellulose) (HPC)) was 92 % of control and the T/C (dose: 50.0 mg/kg/injection, schedule: Q01DX009 (ip), vehicle: Klucel (hydroxypropylcellulose) (HPC)) was 102 % of control. The T/C [6] was 95 % of control and 102 % of control, the T/C [4] was 90 % of control and 92 % of control and the T/C [5] was 95 % of control and 97 % of control.

In the case of `COc1cccc2c1CCC1=C2CC2C(=O)C1CCC2(C)O` (configuration not stated), the T/C [1] is reported as 88 % of control, the T/C [2] is reported as 97 % of control and the T/C [7] is reported as 100 % of control.

With `ClCCCNCc1ccccc1` the T/C [1] was 94 % of control.

In the case of `Cc1cnc2c(=N)n(C(=O)C(F)(F)F)n(C)c2n1`, the T/C [1] is reported as 89 % of control, the T/C [2] is reported as 100 % of control and the T/C [7] is reported as 92 % of control.

With `C[N+](C)(C)Cc1ccccc1` the T/C (dose: 25.0 mg/kg/injection, schedule: Q01DX001 (ip), vehicle: saline) was 91 % of control.

In the case of `O=NN(CCCl)C(=O)NC1CC2CCC1C2` (configuration not stated), the T/C (dose: 0.31 mg/kg/injection, schedule: Q04DX004 (ip), vehicle: Klucel (hydroxypropylcellulose) (HPC)) is reported as 115 % of control, the T/C (dose: 0.62 mg/kg/injection, schedule: Q04DX004 (ip), vehicle: Klucel (hydroxypropylcellulose) (HPC)) is reported as 93 % of control and the T/C (dose: 0.75 mg/kg/injection, schedule: Q04DX008 (ip), vehicle: Klucel (hydroxypropylcellulose) (HPC)) is reported as 102 % of control. For the same compound, the T/C (dose: 1.25 mg/kg/injection, schedule: Q04DX004 (ip), vehicle: Klucel (hydroxypropylcellulose) (HPC)) was 112 % of control, the T/C (dose: 1.5 mg/kg/injection, schedule: Q04DX008 (ip), vehicle: Klucel (hydroxypropylcellulose) (HPC)) was 108 % of control and the T/C (dose: 2.5 mg/kg/injection, schedule: Q04DX004 (ip), vehicle: Klucel (hydroxypropylcellulose) (HPC)) was 112 % of control. The T/C (dose: 5.0 mg/kg/injection, schedule: Q04DX004 (ip), vehicle: Klucel (hydroxypropylcellulose) (HPC)) was 120 % of control, the T/C (dose: 5.0 mg/kg/injection, schedule: Q04DX008 (ip), vehicle: Klucel (hydroxypropylcellulose) (HPC)) was 150 % of control and the T/C (dose: 10.0 mg/kg/injection, schedule: Q04DX004 (ip), vehicle: Klucel (hydroxypropylcellulose) (HPC)) was 114 % of control. The T/C (dose: 20.0 mg/kg/injection, schedule: Q04DX004 (ip), vehicle: Klucel (hydroxypropylcellulose) (HPC)) was 114 % of control.

For `S=c1nc(-c2ccccc2)c(-c2ccccc2)n[nH]1`, the T/C (dose: 100.0 mg/kg/injection, schedule: Q01DX001 (ip), vehicle: saline with Tween-80) was 106 % of control, the T/C (dose: 200.0 mg/kg/injection, schedule: Q01DX001 (ip), vehicle: saline with Tween-80) was 103 % of control and the T/C (dose: 400.0 mg/kg/injection, schedule: Q01DX001 (ip), vehicle: saline with Tween-80) was 112 % of control.

`Nc1ccccc1SC1CC(=O)N(c2ccc(I)cc2)C1=O` (configuration not stated) was tested, and the T/C [6] was 93 % of control, the T/C [3] was 90 % of control and the T/C (dose: 200.0 mg/kg/injection, schedule: Q04DX003 (ip), vehicle: Klucel (hydroxypropylcellulose) (HPC)) was 86 % of control.
